Measured values taken from PubChem BioAssay AID248 (DTP/NCI, 2004).
Where “and” joins values, the source holds several entries; their conditions need not be identical. Equal values may be shown once. Toxic doses and inconclusive results are not listed.

System: L1210 leukemia ip in BDF1 mice, survival T/C
Assay: NCI In Vivo Anticancer Drug Screen. Data for tumor model L1210 Leukemia (intraperitoneal) in B6D2F1 (BDF1) mice
Conditions: endpoint: mean survival time, higher = longer survival
In short: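 Mice bearing the transplanted tumor received compound or vehicle. Survival of the treated group was divided by that of the vehicle-treated control group to give the ratio.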

[1] = dose: 200.0 mg/kg/injection, schedule: Q04DX002 (ip), vehicle: Klucel (hydroxypropylcellulose) (HPC)
[2] = dose: 50.0 mg/kg/injection, schedule: Q01DX009 (ip), vehicle: Klucel (hydroxypropylcellulose) (HPC)
[3] = dose: 100.0 mg/kg/injection, schedule: Q01DX009 (ip), vehicle: Klucel (hydroxypropylcellulose) (HPC)
[4] = dose: 100.0 mg/kg/injection, schedule: Q04DX003 (ip), vehicle: Klucel (hydroxypropylcellulose) (HPC)
[5] = dose: 200.0 mg/kg/injection, schedule: Q01DX009 (ip), vehicle: Klucel (hydroxypropylcellulose) (HPC)
[6] = dose: 200.0 mg/kg/injection, schedule: Q04DX003 (ip), vehicle: Klucel (hydroxypropylcellulose) (HPC)
[7] = dose: 400.0 mg/kg/injection, schedule: Q01DX009 (ip), vehicle: Klucel (hydroxypropylcellulose) (HPC)
[8] = dose: 400.0 mg/kg/injection, schedule: Q04DX003 (ip), vehicle: Klucel (hydroxypropylcellulose) (HPC)
[9] = dose: 100.0 mg/kg/injection, schedule: Q04DX003 (ip), vehicle: saline
[10] = dose: 200.0 mg/kg/injection, schedule: Q04DX003 (ip), vehicle: saline
[11] = dose: 400.0 mg/kg/injection, schedule: Q04DX003 (ip), vehicle: saline
[12] = dose: 100.0 mg/kg/injection, schedule: Q01DX001 (ip), vehicle: saline with Tween-80

In the case of `C=CCCCCCCCCC(=O)N/N=C/c1ccc(NC(C)=O)cc1`, the T/C (dose: 12.5 mg/kg/injection, schedule: Q01DX001 (ip), vehicle: other) is reported as 90 % of control, the T/C (dose: 12.5 mg/kg/injection, schedule: Q01DX009 (ip), vehicle: other) is reported as 95 % of control and 96 % of control and the T/C (dose: 12.5 mg/kg/injection, schedule: Q04DX003 (ip), vehicle: other) is reported as 96 % of control. The T/C (dose: 25.0 mg/kg/injection, schedule: Q01DX001 (ip), vehicle: other) was 91 % of control, the T/C (dose: 25.0 mg/kg/injection, schedule: Q01DX009 (ip), vehicle: other) was 114 % of control and 92 % of control and the T/C (dose: 25.0 mg/kg/injection, schedule: Q04DX003 (ip), vehicle: other) was 102 % of control. For the same compound, the T/C (dose: 50.0 mg/kg/injection, schedule: Q01DX009 (ip), vehicle: carboxymethylcellulose (CMC)) was 98 % of control and 100 % of control, the T/C (dose: 50.0 mg/kg/injection, schedule: Q04DX003 (ip), vehicle: other) was 93 % of control and the T/C (dose: 100.0 mg/kg/injection, schedule: Q01DX009 (ip), vehicle: carboxymethylcellulose (CMC)) was 96 % of control. For the same compound, the T/C (dose: 100.0 mg/kg/injection, schedule: Q01DX009 (ip), vehicle: other) was 98 % of control, the T/C (dose: 100.0 mg/kg/injection, schedule: Q04DX002 (ip), vehicle: carboxymethylcellulose (CMC)) was 90 % of control and the T/C (dose: 100.0 mg/kg/injection, schedule: Q04DX003 (ip), vehicle: other) was 94 % of control. The T/C (dose: 200.0 mg/kg/injection, schedule: Q01DX009 (ip), vehicle: carboxymethylcellulose (CMC)) was 100 % of control and 92 % of control, the T/C (dose: 200.0 mg/kg/injection, schedule: Q01DX009 (ip), vehicle: other) was 89 % of control and the T/C [1] was 114 % of control. For the same compound, the T/C (dose: 200.0 mg/kg/injection, schedule: Q04DX002 (ip), vehicle: carboxymethylcellulose (CMC)) was 90 % of control, the T/C (dose: 200.0 mg/kg/injection, schedule: Q04DX003 (ip), vehicle: other) was 92 % of control and the T/C (dose: 400.0 mg/kg/injection, schedule: Q04DX002 (ip), vehicle: carboxymethylcellulose (CMC)) was 92 % of control. For the same compound, the T/C (dose: 400.0 mg/kg/injection, schedule: Q04DX003 (ip), vehicle: other) was 86 % of control.
With `Cc1cccc(C)c1N1C(=O)CCC1=O` the T/C [2] was 98 % of control, the T/C [3] was 96 % of control and the T/C [4] was 94 % of control. For the same compound, the T/C [5] was 100 % of control, the T/C [6] was 97 % of control and the T/C [7] was 100 % of control. For the same compound, the T/C [8] was 100 % of control.
With `Cc1cc(-c2ccccc2O)nc(N(C)CC(=O)O)n1` the T/C (dose: 100.0 mg/kg/injection, schedule: Q04DX002 (ip), vehicle: Klucel (hydroxypropylcellulose) (HPC)) was 94 % of control, the T/C [1] was 98 % of control and the T/C (dose: 400.0 mg/kg/injection, schedule: Q04DX002 (ip), vehicle: Klucel (hydroxypropylcellulose) (HPC)) was 96 % of control.
For `CCC(=O)c1ccc(O)cc1`, the T/C [4] was 102 % of control, the T/C [6] was 102 % of control and the T/C [8] was 102 % of control.
In the case of `N#CCCN1CCN(CCC#N)CC1`, the T/C [9] is reported as 96 % of control, the T/C [10] is reported as 103 % of control and the T/C [11] is reported as 100 % of control.
With `Cc1nc(N)c([N+](=O)[O-])cc1[N+](=O)[O-]` the T/C (dose: 100.0 mg/kg/injection, schedule: Q01DX009 (ip), vehicle: acetone) was 100 % of control.
In the case of `Cn1cc2c(=O)n(OS(=O)(=O)c3ccccc3)c(=O)[nH]c2n1`, the T/C (dose: 50.0 mg/kg/injection, schedule: Q01DX001 (ip), vehicle: saline) is reported as 106 % of control, the T/C (dose: 100.0 mg/kg/injection, schedule: Q01DX001 (ip), vehicle: saline) is reported as 93 % of control and the T/C (dose: 200.0 mg/kg/injection, schedule: Q01DX001 (ip), vehicle: saline) is reported as 106 % of control. For the same compound, the T/C (dose: 400.0 mg/kg/injection, schedule: Q01DX001 (ip), vehicle: saline) was 100 % of control.
In the case of `C=C1C(=O)OC2CC3(C)OC3C3OC3C3=CC(OC3=O)C12` (stereo unspecified), the T/C (dose: 5.0 mg/kg/injection, schedule: Q01DX001 (ip), vehicle: carboxymethylcellulose (CMC)) is reported as 112 % of control.
With `O=C(c1ccccc1)C1C(c2ccccc2)N1C1CCCCC1` (stereo unspecified) the T/C [2] was 95 % of control, the T/C [3] was 97 % of control and 103 % of control and the T/C [4] was 96 % of control and 100 % of control. For the same compound, the T/C [5] was 95 % of control and 89 % of control, the T/C [6] was 93 % of control and 88 % of control and the T/C [7] was 90 % of control and 91 % of control. The T/C [8] was 95 % of control and 100 % of control.
For `CCOC(=O)c1ccc(NCC#N)cc1`, the T/C (dose: 25.0 mg/kg/injection, schedule: Q01DX009 (ip), vehicle: saline with Tween-80) was 92 % of control, the T/C (dose: 50.0 mg/kg/injection, schedule: Q01DX009 (ip), vehicle: saline with Tween-80) was 95 % of control and the T/C [12] was 97 % of control. The T/C (dose: 100.0 mg/kg/injection, schedule: Q01DX009 (ip), vehicle: saline with Tween-80) was 94 % of control, the T/C (dose: 200.0 mg/kg/injection, schedule: Q01DX001 (ip), vehicle: saline with Tween-80) was 92 % of control and the T/C (dose: 200.0 mg/kg/injection, schedule: Q01DX009 (ip), vehicle: saline with Tween-80) was 91 % of control. The T/C (dose: 400.0 mg/kg/injection, schedule: Q01DX001 (ip), vehicle: saline with Tween-80) was 98 % of control and the T/C (dose: 400.0 mg/kg/injection, schedule: Q01DX009 (ip), vehicle: saline with Tween-80) was 102 % of control.
`C[n+]1c(/C=C/c2ccc(O)c3ncccc23)[se]c2ccccc21` was tested, and the T/C (dose: 100.0 mg/kg/injection, schedule: Q01DX001 (ip), vehicle: carboxymethylcellulose (CMC)) was 95 % of control, the T/C [9] was 108 % of control and the T/C (dose: 200.0 mg/kg/injection, schedule: Q01DX001 (ip), vehicle: carboxymethylcellulose (CMC)) was 100 % of control. For the same compound, the T/C [10] was 110 % of control, the T/C (dose: 400.0 mg/kg/injection, schedule: Q01DX001 (ip), vehicle: carboxymethylcellulose (CMC)) was 105 % of control and the T/C [11] was 105 % of control.
With `CC1CN(C(=O)Nc2ccc(Cl)cc2)CC(C)O1` (stereo unspecified) the T/C [3] was 100 % of control, the T/C [4] was 100 % of control and the T/C [5] was 101 % of control. The T/C [6] was 89 % of control, the T/C [7] was 113 % of control and the T/C [8] was 97 % of control.
For `O=C(/C=C\c1ccc(C(=O)Nc2ccc(C3=NCCCN3)cc2)cc1)Nc1ccc(C2=NCCCN2)cc1`, the T/C (dose: 0.25 mg/kg/injection, schedule: Q01DX Z (ip), vehicle: water) was 121 % of control, the T/C (dose: 0.75 mg/kg/injection, schedule: Q01DX Z (ip), vehicle: water) was 183 % of control and the T/C (dose: 1.0 mg/kg/injection, schedule: Q01DX Z (ip), vehicle: water) was 220 % of control. For the same compound, the T/C (dose: 1.25 mg/kg/injection, schedule: Q01DX Z (ip), vehicle: water) was 203 % of control, the T/C (dose: 10.5 mg/kg/injection, schedule: Q01DX Z (ip), vehicle: water) was 123 % of control and the T/C (dose: 50.0 mg/kg/injection, schedule: Q01DX Z (oral), vehicle: water) was 101 % of control. For the same compound, the T/C (dose: 100.0 mg/kg/injection, schedule: Q01DX Z (oral), vehicle: water) was 93 % of control and the T/C (dose: 200.0 mg/kg/injection, schedule: Q01DX Z (oral), vehicle: water) was 114 % of control.
With `CCCC/C(=N/NC(N)=O)C(OC)OC` the T/C (dose: 100.0 mg/kg/injection, schedule: Q01DX001 (ip), vehicle: other) was 92 % of control, the T/C (dose: 200.0 mg/kg/injection, schedule: Q01DX001 (ip), vehicle: other) was 86 % of control and the T/C (dose: 400.0 mg/kg/injection, schedule: Q01DX001 (ip), vehicle: other) was 94 % of control.
For `O=C1/C(=C\c2ccccc2)Oc2cc(O)c(O)cc21`, the T/C [12] was 98 % of control.
In the case of `CS(=O)(=O)Oc1ccccc1OS(C)(=O)=O`, the T/C (dose: 100.0 mg/kg/injection, schedule: Q04DX002 (ip), vehicle: saline with Tween-80) is reported as 91 % of control and the T/C (dose: 200.0 mg/kg/injection, schedule: Q04DX002 (ip), vehicle: saline with Tween-80) is reported as 107 % of control.
With `S=c1[nH]c2ccc(Cl)cc2s1` the T/C (dose: 25.0 mg/kg/injection, schedule: Q01DX009 (ip), vehicle: Klucel (hydroxypropylcellulose) (HPC)) was 101 % of control, the T/C (dose: 25.0 mg/kg/injection, schedule: Q04DX003 (ip), vehicle: Klucel (hydroxypropylcellulose) (HPC)) was 115 % of control and the T/C [2] was 97 % of control. The T/C (dose: 50.0 mg/kg/injection, schedule: Q04DX003 (ip), vehicle: Klucel (hydroxypropylcellulose) (HPC)) was 106 % of control, the T/C [3] was 97 % of control and the T/C [4] was 96 % of control.
For `CN(C)C(=O)CCC(=O)O`, the T/C (dose: 100.0 mg/kg/injection, schedule: Q04DX002 (ip), vehicle: saline) was 103 % of control, the T/C (dose: 200.0 mg/kg/injection, schedule: Q04DX002 (ip), vehicle: saline) was 97 % of control and the T/C (dose: 400.0 mg/kg/injection, schedule: Q04DX002 (ip), vehicle: saline) was 97 % of control.
